Values of other authors as cited in patent US20190117655A1, “Treatment of Biliary Duct Cancer” (ASLAN Pharmaceuticals PTE LTD, priority 2015, published 2019).

Test system: advanced or metastatic biliary tract cancer
Details: capecitabine monotherapy, similar populations; cited from earlier work

In the case of `CCCCCOC(=O)Nc1nc(=O)n([C@@H]2O[C@H](C)[C@@H](O)[C@H]2O)cc1F` [capecitabine], the “Historical response rate, ORR” value is given as 6-8%.
